{"source": "patent US12319652B2", "about": "“Salts and solid forms of (R)-1-(5-methoxy-1H-indol-1-yl)-N,N-dimethylpropan-2-amine” (priority 2021, dated 2025)", "assay": "Solubility determinations in SIF buffers (FaSSIF, FeSSIF, FaSSGF)", "format": "physicochemical", "method": "At this stage ca. 1 g of each front-runner salt form was prepared. Salt forms that offered significant solubility and stability advantages over the non-ionized API were prioritized. […] Scale Up\nThe solubility of the salts below was determined in FaSSIF, FeSSIF and FaSSGF by reference to the calibration curve of amorphous compound 1.\nSeparate portions of compound 1 were weighed out into aluminum boats and were charged to the relevant volumetric flasks. Solutions were made to volume with 1 to 1 (v/v) acetonitrile/purified water to give calibrants of known API concentrations and analyzed by HPLC, suitable to determine the concentration of compound 1 free base in the SIF buffer solubility study.\nEach sample (150 mg) was suspended in the relevant SIF buffer (5.0 ml), to give a concentration of 30 mg/ml and maintain at 37° C. for 24 h. The pH was adjusted using 1 M HCl or 1 M NaOH, to ensure that the suspension remains in range.\nSample (1 ml) of the well-stirred representative suspensions was obtained at 1 h, 3 h, 6 h and 24 h and the pH was recorded. The pH of the bulk suspension was re-adjusted when necessary. The obtained sample from each vial was centrifuged, and the supernatant was analysed by HPLC (note, the analyte was diluted, when outside of the calibration range); XRPD analysis was performed on the wet sample pellet for evidence of form change, as well as on the oven-dried pellet (undervacuum at 40° C.)."}
{"compound": "COc1ccc2c(ccn2C[C@@H](C)N(C)C)c1.O=C(O)/C=C\\C(=O)O", "note": "[Compound 1 · Maleate]", "values": [{"measurement": "Solubility", "setting": "FaSSGF (ph 1.6), t = 1 h@37° C.", "value": ">30", "unit": "mg/mL"}, {"measurement": "Solubility", "setting": "FaSSGF (ph 1.6), t = 3 h@37° C.", "value": ">30", "unit": "mg/mL"}, {"measurement": "Solubility", "setting": "FaSSGF (ph 1.6), t = 6 h@37° C.", "value": ">30", "unit": "mg/mL"}, {"measurement": "Solubility", "setting": "FaSSGF (ph 1.6), t = 24 h @37° C.", "value": ">30", "unit": "mg/mL"}, {"measurement": "Solubility", "setting": "FaSSIF (ph 6.5), t = 1 h@37° C.", "value": ">30", "unit": "mg/mL"}, {"measurement": "Solubility", "setting": "FaSSIF (ph 6.5), t = 3 h@37° C.", "value": ">30", "unit": "mg/mL"}, {"measurement": "Solubility", "setting": "FaSSIF (ph 6.5), t = 6 h@37° C.", "value": ">30", "unit": "mg/mL"}, {"measurement": "Solubility", "setting": "FaSSIF (ph 6.5), t = 24 h @37° C.", "value": ">30", "unit": "mg/mL"}, {"measurement": "Solubility", "setting": "FeSSIF (ph 5.0), t = 1 h@37° C.", "value": ">30", "unit": "mg/mL"}, {"measurement": "Solubility", "setting": "FeSSIF (ph 5.0), t = 3 h@37° C.", "value": ">30", "unit": "mg/mL"}, {"measurement": "Solubility", "setting": "FeSSIF (ph 5.0), t = 6 h@37° C.", "value": ">30", "unit": "mg/mL"}, {"measurement": "Solubility", "setting": "FeSSIF (ph 5.0), t = 24 h @37° C.", "value": ">30", "unit": "mg/mL"}]}
{"compound": "COc1ccc2c(ccn2C[C@@H](C)N(C)C)c1.O=C(O)c1ccccc1", "note": "[Compound 1.Benzoate]", "values": [{"measurement": "HPLC peak RRT 1.00 (Compound 1)", "setting": "input salt before FaSSGF", "value": 99.64}, {"measurement": "HPLC peak RRT 1.09", "setting": "input salt before FaSSGF", "value": 0.03}, {"measurement": "HPLC peak RRT 1.17", "setting": "input salt before FaSSGF", "value": 0.03}, {"measurement": "HPLC peak RRT 1.18", "setting": "input salt before FaSSGF", "value": 0.10}, {"measurement": "HPLC peak RRT 1.19", "setting": "input salt before FaSSGF", "value": 0.02}, {"measurement": "HPLC peak RRT 1.24", "setting": "input salt before FaSSGF", "value": 0.06}, {"measurement": "HPLC peak RRT 1.28", "setting": "input salt before FaSSGF", "value": 0.01}, {"measurement": "HPLC peak RRT 1.33", "setting": "input salt before FaSSGF", "value": 0.10}, {"measurement": "HPLC peak RRT 0.90", "setting": "t = 1 h in FaSSGF", "value": 0.07}, {"measurement": "HPLC peak RRT 0.92", "setting": "t = 1 h in FaSSGF", "value": 0.05}, {"measurement": "HPLC peak RRT 1.00 (Compound 1)", "setting": "t = 1 h in FaSSGF", "value": 99.28}, {"measurement": "HPLC peak RRT 1.07", "setting": "t = 1 h in FaSSGF", "value": 0.04}, {"measurement": "HPLC peak RRT 1.09", "setting": "t = 1 h in FaSSGF", "value": 0.06}, {"measurement": "HPLC peak RRT 1.17", "setting": "t = 1 h in FaSSGF", "value": 0.04}, {"measurement": "HPLC peak RRT 1.19", "setting": "t = 1 h in FaSSGF", "value": 0.15}, {"measurement": "HPLC peak RRT 1.27", "setting": "t = 1 h in FaSSGF", "value": 0.11}, {"measurement": "HPLC peak RRT 1.28", "setting": "t = 1 h in FaSSGF", "value": 0.05}, {"measurement": "HPLC peak RRT 1.33", "setting": "t = 1 h in FaSSGF", "value": 0.15}, {"measurement": "HPLC peak RRT 0.97", "setting": "t = 3 h in FaSSGF", "value": 0.04}, {"measurement": "HPLC peak RRT 1.00 (Compound 1)", "setting": "t = 3 h in FaSSGF", "value": 99.62}, {"measurement": "HPLC peak RRT 1.07", "setting": "t = 3 h in FaSSGF", "value": 0.03}, {"measurement": "HPLC peak RRT 1.17", "setting": "t = 3 h in FaSSGF", "value": 0.15}, {"measurement": "HPLC peak RRT 1.33", "setting": "t = 3 h in FaSSGF", "value": 0.16}, {"measurement": "HPLC peak RRT 1.00 (Compound 1)", "setting": "t = 6 h in FaSSGF", "value": 99.61}, {"measurement": "HPLC peak RRT 1.17", "setting": "t = 6 h in FaSSGF", "value": 0.12}, {"measurement": "HPLC peak RRT 1.24", "setting": "t = 6 h in FaSSGF", "value": 0.08}, {"measurement": "HPLC peak RRT 1.25", "setting": "t = 6 h in FaSSGF", "value": 0.04}, {"measurement": "HPLC peak RRT 1.32", "setting": "t = 6 h in FaSSGF", "value": 0.06}, {"measurement": "HPLC peak RRT 1.33", "setting": "t = 6 h in FaSSGF", "value": 0.09}, {"measurement": "HPLC peak RRT 1.00 (Compound 1)", "setting": "t = 24 h in FaSSGF", "value": 99.73}, {"measurement": "HPLC peak RRT 1.17", "setting": "t = 24 h in FaSSGF", "value": 0.15}, {"measurement": "HPLC peak RRT 1.32", "setting": "t = 24 h in FaSSGF", "value": 0.07}, {"measurement": "HPLC peak RRT 1.33", "setting": "t = 24 h in FaSSGF", "value": 0.06}]}
